Results published in patent publication US8735387B2, “Oxazolopyrimidines as Edg-1 receptor agonists” (Sanofi, priority 2008, dated 2014).

Target: T1, human Edg-1 receptor (Homo sapiens, UniProt P21453)
T1 construct: expressed in transfected cells; membrane preparation
Experiment: GTP-γ-S assay using human Edg-1 receptors (scintillation proximity assay, membrane preparation from CHO Flp-In cell line)
Type: biochemical
Conditions: example compound at 10 μM; relative to 10 μM S1P; GTP-γ-S SPA, human Edg-1 membranes
Source text: Determination of the Pharmacological Activity A) GTP-γ-S Assay Using Human Edg-1 Receptors
In order to determine the Edg-1 receptor activation by the compounds of the invention, a GTP-γ-S (guanosine 5′-[γ-thio]triphosphate) assay for G-protein coupled receptor binding based on the scintillation proximity assay principle was used, employing a cell membrane preparation from a CHO Flp-In cell line which constitutively overexpresses the human Edg-1 receptor.
The Flp-In™ expression system (Invitrogen, cat. no. K6010-01) allows the generation of stable mammalian cell lines into which the gene of interest has been integrated through homologous recombination at a specific genomic location called Flp Recombination Target (FRT) site by means of a Flp recombinase encoded by the pOG44 expression plasmid. The integration of the pcDNA5/FRT expression construct into the Flp-In host cell line genome results in the transcription of the gene of interest. The stably transfected cells become hygromycin-resistant.
One day prior to transfection, 200 000 Flp-In-CHO cells were seeded in Ham F-12 medium (Invitrogen, cat. no. 31765) supplemented with 10% fetal calf serum (FCS; Perbio Science, cat. no. SH30068.03) in a 6-well plate and incubated at 37° C./5% CO2 overnight. Using the FuGENE® 6 transfection reagent (Roche, cat. no. 11988387001), cells were cotransfected with the Flp recombinase expression plasmid pOG44 and a modified plasmid additionally containing the edg-1 gene (accession no. NM_001400) termed as pcDNA5-FRT-TO_nFLAG_DEST-EDG-1 with a 9:1 ratio. To obtain the modified pcDNA5-FRT-TO_nFLAG_DEST plasmid, the Invitrogen plasmid pcDNA5/FRT/TO (Invitrogen, cat. no. V6520-20) was adapted to the Gateway® (Invitrogen) cloning system by inserting a Gateway cassette containing attR recombination sites flanking a ccdB gene and a chloramphenicol-resistance gene (Gateway conversion system, Invitrogen, cat. no. 11828-029). In addition a FLAG tag epitope was added before the 5′ att recombination site to allow recombinant expression of N-terminally FLAG-tagged proteins.
For the transfection of one well, 1.08 μg of pOG44 and 0.12 μg of pcDNA5-FRT-TO_nFLAG_DEST-EDG-1 were mixed to 100 μl of serum-free Ham F-12 medium containing 6 μl of FuGENE® 6 transfection reagent. After 20 min of incubation, the transfection reagent/DNA complex was distributed dropwise on the cells. The cells were incubated for 24 h at 37° C. Then the cells from 3 wells each were transferred to a T75 flask (Greiner Cellstar®, cat. no. 658175) containing Ham F-12 medium supplemented with 10% of FCS but without antibiotic and were incubated another 24 h. 48 h after transfection, the medium was replaced by selection medium (Ham F-12 supplemented with 10% of FCS and 300 μg/ml of hygromycin B (Invitrogen, cat. no. 10687-010)). The medium was exchanged every 2 to 3 days until a resistant population of cells had grown. […] After 2 weeks of selection, the cells were transferred into T175 flasks (Greiner Cellstar®, cat. no. 660175) and cultivated for batch production. Cells were harvested from the culture flasks by short treatment (2 to 5 min) with Accutase (PAA, cat. no. L11-007), resuspended in selection medium (see above) and centrifuged at 200×g for 5 min. Cells were resuspended in a mixture of 90% of FCS and 10% of dimethylsulfoxide and stored frozen in liquid nitrogen.
A membrane preparation was obtained by standard methods from the afore-described CHO Flp-In cell line constitutively overexpressing the human Edg-1 receptor. Briefly, the cryopreserved cells were taken in culture and grown until confluency in T175 cell culture flasks (Becton Dickinson, cat. no. 35 5001). […]

T1 sequence (P21453 whole entry): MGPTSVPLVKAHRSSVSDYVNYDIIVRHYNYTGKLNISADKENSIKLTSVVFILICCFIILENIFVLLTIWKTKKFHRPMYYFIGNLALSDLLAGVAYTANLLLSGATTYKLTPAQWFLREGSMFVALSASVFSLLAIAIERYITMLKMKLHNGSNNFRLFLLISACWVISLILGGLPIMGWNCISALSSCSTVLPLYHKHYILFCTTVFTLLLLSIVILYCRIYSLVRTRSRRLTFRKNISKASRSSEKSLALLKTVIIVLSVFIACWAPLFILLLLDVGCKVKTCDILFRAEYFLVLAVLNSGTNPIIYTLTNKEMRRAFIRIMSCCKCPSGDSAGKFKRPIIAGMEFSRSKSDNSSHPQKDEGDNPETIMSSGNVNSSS

Point of comparison: CCCOc1nc(CN2CCC(F)(F)CC2)nc2oc(-c3cccc(OC)c3)nc12 [Example 36], “% Activation (Edg-1 receptor activation in percent of the activation by 10 μM S1P)” value 127%. Against it:
- CCCOc1nc(CCc2ccc(Cl)cc2)nc2oc(-c3cccc(F)c3)nc12 [Example 6] — lower, 60%
- Fc1cccc(-c2nc3c(OCC4CC4)nc(CCc4ccc(Cl)cc4)nc3o2)c1 [Example 7] — lower, 23%
- CCCOc1nc(C(C)c2ccccc2)nc2oc(-c3cccc(F)c3)nc12 (stereo not drawn) [Example 14] — lower, 97%
- Cc1cccc(-c2nc3c(OCC4CC4)nc(C(C)c4ccccc4)nc3o2)c1 (stereo not drawn) [Example 16] — lower, 106%
- CCCOc1nc(CN2CCC(F)(F)CC2)nc2oc(-c3cc(F)ccc3Cl)nc12 [Example 22] — lower, 95%
- CCCOc1nc(CN2CCCOCC2)nc2oc(-c3cc(F)ccc3Cl)nc12 [Example 23] — lower, 97%
- CCCOc1nc(CN2CCOCC2)nc2oc(-c3cc(F)cc(F)c3)nc12 [Example 24] — lower, 115%
- CCCOc1nc(CN2CCC(F)(F)CC2)nc2oc(-c3cc(F)cc(F)c3)nc12 [Example 25] — lower, 117%
- CCCOc1nc(CN2CCCOCC2)nc2oc(-c3cc(F)cc(F)c3)nc12 [Example 26] — lower, 123%
- CCCOc1nc(CN2CCOCC2)nc2oc(-c3cccc(Cl)c3)nc12 [Example 27] — lower, 124%
- CCCOc1nc(CN2CCC(F)(F)CC2)nc2oc(-c3cccc(Cl)c3)nc12 [Example 28] — lower, 102%
- CCCOc1nc(CN2CCCOCC2)nc2oc(-c3cccc(Cl)c3)nc12 [Example 29] — lower, 118%
- CCCOc1nc(CN2CCOCC2)nc2oc(-c3cccc(F)c3)nc12 [Example 30] — lower, 114%
- FCCCOc1nc(CN2CCOCC2)nc2oc(-c3cccc(F)c3)nc12 [Example 31] — lower, 59%
- FCCOc1nc(CN2CCOCC2)nc2oc(-c3cccc(F)c3)nc12 [Example 32] — lower, 42%
- CCCOc1nc(CN2CCC(F)(F)CC2)nc2oc(-c3cccc(F)c3)nc12 [Example 33] — lower, 93%
- CCCOc1nc(CN2CCCOCC2)nc2oc(-c3cccc(F)c3)nc12 [Example 34] — lower, 90%
- CCCOc1nc(CN2CCOCC2)nc2oc(-c3cccc(OC)c3)nc12 [Example 35] — lower, 119%
- CCCOc1nc(CN2CCCOCC2)nc2oc(-c3cccc(OC)c3)nc12 [Example 37] — lower, 116%
- CCCOc1nc(CN2CCOCC2)nc2oc(-c3cccc(C)c3)nc12 [Example 38] — lower, 114%
- CCCOc1nc(CN2CCOCC2)nc2oc(-c3cncc(F)c3)nc12 [Example 39] — lower, 82%

Same assay, conditions: example compound at 10 μM; relative to 10 μM S1P; GTP-γ-S SPA, human Edg-1 membranes; read-out: % Activation (Edg-1 receptor activation in percent of the activation by 10 μM S1P)

Point of comparison: CCCOc1nc(CCc2ccc(OC)cc2)nc2oc(-c3cccc(C)c3)nc12 [Example 8, 5-[2-(4-methoxy-phenyl)-ethyl]-2-(3-methyl-phenyl)-7-propoxy-oxazolo[5,4-d]pyrimidine], activation at 10 µM 51%. Against it:
- CCCOc1nc(CN2CCOCC2)nc2oc(-c3cc(F)ccc3Cl)nc12 [Example 1, 2-(2-Chloro-5-fluoro-phenyl)-5-morpholin-4-ylmethyl-7-propoxy-oxazolo[5,4-d]pyrimidine] — higher, 117%
- CCCOc1nc(CN2CCOCC2)nc2oc(-c3ccco3)nc12 [Example 2, 2-Furan-2-yl-5-morpholin-4-ylmethyl-7-propoxy-oxazolo[5,4-d]pyrimidine] — higher, 80%
- CCCOc1nc(CN2CCOCC2)nc2oc(-c3ccc(Br)o3)nc12 [Example 3, 2-(5-Bromo-furan-2-yl)-5-morpholin-4-ylmethyl-7-propoxy-oxazolo[5,4-d]pyrimidine] — higher, 113%
- CCCOc1nc(CN2CCOCC2)nc2oc(-c3cccc(O)c3)nc12 [Example 4, 3-(5-Morpholin-4-ylmethyl-7-propoxy-oxazolo[5,4-d]pyrimidin-2-yl)-phenol] — higher, 105%
- CCCOc1nc(Cc2ccc(Cl)cc2)nc2oc(-c3cccc(F)c3)nc12 [Example 5, 5-(4-Chloro-benzyl)-2-(3-fluoro-phenyl)-7-propoxy-oxazolo[5,4-d]pyrimidine] — higher, 98%
- Cc1cccc(-c2nc3c(OCC4CC4)nc(CC(C)(C)c4ccccc4)nc3o2)c1 [Example 9, 7-Cyclopropylmethoxy-5-(2-methyl-2-phenyl-propyl)-2-(3-methyl-phenyl)-oxazolo[5,4-d]pyrimidine] — lower, 37%
- CCCOc1nc(C2(c3ccc(Cl)cc3)CC2)nc2oc(-c3cccc(C)c3)nc12 [Example 10, 5-[1-(4-Chloro-phenyl]-cyclopropyl]-7-propoxy-2-(3-methyl-phenyl)-oxazolo[5,4-d]pyrimidine] — higher, 66%
- CCCOc1nc(Cc2ccc(Cl)c(Cl)c2)nc2oc(-c3cccc(C)c3)nc12 [Example 11, 5-(3,4-Dichloro-benzyl)-7-propoxy-2-(3-methyl-phenyl)-oxazolo[5,4-d]pyrimidine] — lower, 39%
- CCCOc1nc(Cc2ccc(C(F)(F)F)cc2)nc2oc(-c3cccc(F)c3)nc12 [Example 12, 2-(3-Fluoro-phenyl)-7-propoxy-5-(4-trifluoromethyl-benzyl)-oxazolo[5,4-d]pyrimidine] — higher, 65%
- CCCOc1nc(C(C)c2ccccc2)nc2oc(-c3cccc(C)c3)nc12 (stereo not drawn) [Example 13, 5-(1-Phenyl-ethyl)-7-propoxy-2-(3-methyl-phenyl)-oxazolo[5,4-d]pyrimidine] — higher, 119%
- CCOc1nc(C(C)c2ccccc2)nc2oc(-c3cccc(F)c3)nc12 (stereo not drawn) [Example 15, 7-ethoxy-2-(3-fluoro-phenyl)-5-(1-phenyl-ethyl)-oxazolo[5,4-d]pyrimidine] — higher, 104%
- CCCOc1nc(Cc2ccc(Cl)cc2)nc2oc(-c3cc(C)c(O)c(C)c3)nc12 [Example 17, 4-[5-(4-Chloro-benzyl)-7-propoxy-oxazolo[5,4-d]pyrimidin-2-yl]-2,6-dimethyl-phenol] — higher, 74%
- CCCOc1nc(Cc2ccc(Cl)cc2)nc2oc(-c3cc(C)c(OCC(O)CO)c(C)c3)nc12 (stereo not drawn) [Example 18, 3-{4-[5-(4-Chloro-benzyl)-7-propoxy-oxazolo[5,4-d]pyrimidin-2-yl]-2,6-dimethyl-phenoxy}-propane-1,2-diol] — higher, 128%
- CCCOc1nc(Cc2ccc(Cl)cc2)nc2oc(-c3cc(C)c(OCCO)c(C)c3)nc12 [Example 19, 2-{4-[5-(4-Chloro-benzyl)-7-propoxy-oxazolo[5,4-d]pyrimidin-2-yl]-2,6-dimethyl-phenoxy}-ethanol] — higher, 102%
- CCCOc1nc(Cc2ccc(Cl)cc2)nc2oc(-c3cc(C)c(OCC(O)CN)c(C)c3)nc12 (stereo not drawn) [Example 20, 1-Amino-3-{4-[5-(4-chloro-benzyl)-7-propoxy-oxazolo[5,4-d]pyrimidin-2-yl]-2,6-dimethyl-phenoxy}-propan-2-ol] — higher, 299%
- CCCOc1nc(Cc2ccc(Cl)cc2)nc2oc(-c3cccc(N)c3)nc12 [Example 21, 3-[5-(4-Chloro-benzyl)-7-propoxy-oxazolo[5,4-d]pyrimidin-2-yl]-phenylamine] — higher, 71%
